Assay [1] deals with Mitogen-activated protein kinase 10 (Homo sapiens, UniProt P53779). Description: Selectivity interaction (Kinase panel (enzymatic assay)) EUB0000595a MAPK10.
Assay [2] has as its target T1, Phosphorylase b kinase gamma catalytic chain, liver/testis isoform (Homo sapiens) (UniProt P15735).
T1 sequence (whole entry): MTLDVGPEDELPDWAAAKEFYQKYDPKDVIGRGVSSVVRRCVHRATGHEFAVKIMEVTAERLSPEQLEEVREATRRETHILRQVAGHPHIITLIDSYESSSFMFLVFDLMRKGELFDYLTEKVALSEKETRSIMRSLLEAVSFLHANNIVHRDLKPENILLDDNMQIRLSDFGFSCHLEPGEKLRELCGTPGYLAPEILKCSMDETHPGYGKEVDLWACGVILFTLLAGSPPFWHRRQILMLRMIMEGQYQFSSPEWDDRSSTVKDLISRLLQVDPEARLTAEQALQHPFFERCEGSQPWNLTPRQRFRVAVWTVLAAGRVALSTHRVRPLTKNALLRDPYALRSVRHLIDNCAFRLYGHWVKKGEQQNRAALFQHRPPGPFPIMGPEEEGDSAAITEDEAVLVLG
In words: Selectivity interaction (SelectScreen profiling (Invitrogen)) EUB0000607a PHKG2. As to conditions: at 2 µM.

Assay [3] deals with T2, Mitogen-activated protein kinase kinase kinase 5 (Homo sapiens) (UniProt Q99683).
T2 sequence (whole entry): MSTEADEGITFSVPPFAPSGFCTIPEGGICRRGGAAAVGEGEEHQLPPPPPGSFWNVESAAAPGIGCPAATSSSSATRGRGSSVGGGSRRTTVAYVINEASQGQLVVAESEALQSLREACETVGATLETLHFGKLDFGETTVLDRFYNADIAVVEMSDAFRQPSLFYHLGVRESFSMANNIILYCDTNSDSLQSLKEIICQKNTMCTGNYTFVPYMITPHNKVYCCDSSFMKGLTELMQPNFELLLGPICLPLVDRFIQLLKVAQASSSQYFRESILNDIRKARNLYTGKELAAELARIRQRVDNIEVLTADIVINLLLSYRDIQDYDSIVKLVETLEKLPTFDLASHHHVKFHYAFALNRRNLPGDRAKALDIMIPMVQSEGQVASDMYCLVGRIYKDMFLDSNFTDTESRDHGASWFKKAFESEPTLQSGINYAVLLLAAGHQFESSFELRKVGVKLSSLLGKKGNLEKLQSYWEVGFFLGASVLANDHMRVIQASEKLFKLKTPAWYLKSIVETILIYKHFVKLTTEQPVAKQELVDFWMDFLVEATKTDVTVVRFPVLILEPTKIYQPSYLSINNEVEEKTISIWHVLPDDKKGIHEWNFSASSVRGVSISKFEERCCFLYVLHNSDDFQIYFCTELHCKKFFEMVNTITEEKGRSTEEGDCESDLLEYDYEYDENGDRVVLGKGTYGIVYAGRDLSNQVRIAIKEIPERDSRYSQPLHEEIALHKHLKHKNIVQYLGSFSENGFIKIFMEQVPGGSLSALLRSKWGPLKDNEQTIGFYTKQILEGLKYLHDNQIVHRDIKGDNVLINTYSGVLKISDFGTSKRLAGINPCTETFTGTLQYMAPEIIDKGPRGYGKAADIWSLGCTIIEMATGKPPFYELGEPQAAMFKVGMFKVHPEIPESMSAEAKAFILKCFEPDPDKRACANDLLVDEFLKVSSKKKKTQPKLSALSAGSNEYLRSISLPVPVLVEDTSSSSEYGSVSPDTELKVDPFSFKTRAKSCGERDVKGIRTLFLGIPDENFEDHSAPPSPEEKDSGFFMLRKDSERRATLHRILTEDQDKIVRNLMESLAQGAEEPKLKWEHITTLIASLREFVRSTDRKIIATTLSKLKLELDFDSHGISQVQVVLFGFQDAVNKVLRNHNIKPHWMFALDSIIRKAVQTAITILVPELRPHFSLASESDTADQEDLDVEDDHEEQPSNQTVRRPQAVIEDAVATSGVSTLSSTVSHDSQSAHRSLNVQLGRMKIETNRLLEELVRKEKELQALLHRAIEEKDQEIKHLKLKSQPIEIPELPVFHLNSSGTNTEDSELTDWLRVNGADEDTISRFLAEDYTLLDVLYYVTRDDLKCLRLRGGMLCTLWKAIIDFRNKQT
In words: Selectivity interaction (ProQinase) EUB0000171b MAP3K5.

Assay [4] addresses Myosin light chain kinase, smooth muscle (Homo sapiens, UniProt Q15746). In words: Selectivity interaction (Upstate Kinase Profiler service (Millipore)) EUB0000056c MYLK. Particulars: at 1 µM.
Assay [5] addresses T3, Phosphatidylinositol 5-phosphate 4-kinase type-2 beta (Homo sapiens) (UniProt P78356).
T3 sequence (whole entry): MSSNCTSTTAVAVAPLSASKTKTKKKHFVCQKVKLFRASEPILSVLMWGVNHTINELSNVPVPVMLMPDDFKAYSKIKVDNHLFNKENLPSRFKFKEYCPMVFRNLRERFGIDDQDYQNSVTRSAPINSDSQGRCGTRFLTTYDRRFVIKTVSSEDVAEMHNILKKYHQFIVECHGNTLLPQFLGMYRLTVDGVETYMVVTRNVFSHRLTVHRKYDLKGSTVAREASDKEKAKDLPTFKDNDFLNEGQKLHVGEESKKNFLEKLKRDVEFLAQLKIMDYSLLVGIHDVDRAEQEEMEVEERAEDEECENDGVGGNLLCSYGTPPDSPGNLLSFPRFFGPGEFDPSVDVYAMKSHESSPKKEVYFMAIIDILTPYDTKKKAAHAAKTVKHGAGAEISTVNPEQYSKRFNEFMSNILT
In words: Selectivity interaction (Kinase panel (KiNativ target engagement assay in Jurkat cells)) EUB0001635a PIP4K2B. It counts as cell-based. As to conditions: Selectivity number of off-targets 0.0, Selectivity number of targets 233.0, Source Knowledge https://www.sciencedirect.com/science/article/pii/S2451945619300674?via%3Dihub, at 1 µM.

Each structure is given as a SMILES string.

Usually IC50 stands for the midpoint of a concentration-inhibition curve. Lower therefore signals higher potency.

Mitogen-activated protein kinase 10, sequence (P53779 whole entry, canonical isoform): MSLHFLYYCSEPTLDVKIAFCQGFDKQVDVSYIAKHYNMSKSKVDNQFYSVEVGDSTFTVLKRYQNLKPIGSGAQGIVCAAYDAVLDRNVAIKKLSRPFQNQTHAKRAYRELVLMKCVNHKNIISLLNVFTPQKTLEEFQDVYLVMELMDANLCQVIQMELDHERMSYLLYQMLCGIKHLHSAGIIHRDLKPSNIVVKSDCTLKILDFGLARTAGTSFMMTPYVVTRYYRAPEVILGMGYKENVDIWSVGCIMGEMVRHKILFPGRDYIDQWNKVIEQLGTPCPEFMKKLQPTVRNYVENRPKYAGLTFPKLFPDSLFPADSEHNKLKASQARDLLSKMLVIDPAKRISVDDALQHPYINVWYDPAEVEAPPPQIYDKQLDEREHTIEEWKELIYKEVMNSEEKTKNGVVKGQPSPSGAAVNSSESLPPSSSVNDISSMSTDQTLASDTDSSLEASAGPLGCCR
Myosin light chain kinase, smooth muscle, sequence (Q15746 whole entry): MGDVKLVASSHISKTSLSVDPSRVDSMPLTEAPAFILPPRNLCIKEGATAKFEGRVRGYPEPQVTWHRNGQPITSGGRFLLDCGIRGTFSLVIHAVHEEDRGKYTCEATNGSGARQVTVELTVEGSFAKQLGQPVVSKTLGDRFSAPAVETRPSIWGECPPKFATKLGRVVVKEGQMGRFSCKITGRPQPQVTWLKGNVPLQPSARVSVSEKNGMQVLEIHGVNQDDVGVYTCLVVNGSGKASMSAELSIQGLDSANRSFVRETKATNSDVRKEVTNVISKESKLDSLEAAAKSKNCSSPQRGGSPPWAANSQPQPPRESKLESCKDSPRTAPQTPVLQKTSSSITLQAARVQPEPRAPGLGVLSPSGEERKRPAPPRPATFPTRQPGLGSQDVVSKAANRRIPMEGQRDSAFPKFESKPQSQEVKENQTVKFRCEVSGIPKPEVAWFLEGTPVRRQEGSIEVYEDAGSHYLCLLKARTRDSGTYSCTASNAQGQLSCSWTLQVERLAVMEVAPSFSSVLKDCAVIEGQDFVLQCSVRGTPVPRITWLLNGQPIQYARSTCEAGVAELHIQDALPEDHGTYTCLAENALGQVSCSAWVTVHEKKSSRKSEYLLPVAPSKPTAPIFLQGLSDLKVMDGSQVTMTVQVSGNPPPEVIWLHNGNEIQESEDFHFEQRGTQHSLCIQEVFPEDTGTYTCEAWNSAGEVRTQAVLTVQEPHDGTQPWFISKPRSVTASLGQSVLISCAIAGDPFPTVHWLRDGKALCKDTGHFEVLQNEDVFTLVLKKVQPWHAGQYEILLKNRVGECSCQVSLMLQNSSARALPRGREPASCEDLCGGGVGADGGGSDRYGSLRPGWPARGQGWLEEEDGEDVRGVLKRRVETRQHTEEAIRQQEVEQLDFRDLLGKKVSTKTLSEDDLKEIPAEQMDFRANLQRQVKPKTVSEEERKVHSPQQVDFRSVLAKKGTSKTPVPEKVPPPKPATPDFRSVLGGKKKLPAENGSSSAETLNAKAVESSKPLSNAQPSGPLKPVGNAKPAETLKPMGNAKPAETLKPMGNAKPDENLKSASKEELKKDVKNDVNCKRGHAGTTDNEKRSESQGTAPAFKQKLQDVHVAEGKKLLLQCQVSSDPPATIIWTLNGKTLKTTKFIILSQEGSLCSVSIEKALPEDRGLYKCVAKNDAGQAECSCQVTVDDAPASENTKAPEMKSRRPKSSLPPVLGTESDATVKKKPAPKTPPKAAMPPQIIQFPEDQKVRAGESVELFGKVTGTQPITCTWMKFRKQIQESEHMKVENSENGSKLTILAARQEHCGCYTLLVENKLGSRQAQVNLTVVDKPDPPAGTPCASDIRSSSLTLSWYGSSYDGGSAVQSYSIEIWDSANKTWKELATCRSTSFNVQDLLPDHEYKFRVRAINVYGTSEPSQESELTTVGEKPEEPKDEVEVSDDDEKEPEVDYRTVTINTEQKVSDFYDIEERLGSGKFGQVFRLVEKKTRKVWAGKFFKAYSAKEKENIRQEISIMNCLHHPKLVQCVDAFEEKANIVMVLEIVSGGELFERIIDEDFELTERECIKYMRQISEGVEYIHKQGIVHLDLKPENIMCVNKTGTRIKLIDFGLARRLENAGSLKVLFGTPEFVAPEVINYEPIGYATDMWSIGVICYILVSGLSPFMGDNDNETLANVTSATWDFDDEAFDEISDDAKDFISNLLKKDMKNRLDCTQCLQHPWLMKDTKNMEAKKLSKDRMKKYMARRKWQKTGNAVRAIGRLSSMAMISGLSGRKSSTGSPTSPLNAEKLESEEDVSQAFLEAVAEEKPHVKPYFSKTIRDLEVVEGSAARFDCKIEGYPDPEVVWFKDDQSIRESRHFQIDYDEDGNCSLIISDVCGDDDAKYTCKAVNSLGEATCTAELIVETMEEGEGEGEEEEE

Regarding `COCC(=O)NC/C=C/c1ccc2ncnc(Nc3ccc(Oc4ccc(C)nc4)c(C)c3)c2c1` [CP-724714], the IC50 in assay [1] was > 10 µM.

`CNC(=O)Nc1ccc(-c2nc(N3CC4CCC(C3)O4)c3cnn(C4CCC5(CC4)OCCO5)c3n2)cc1`: the % of inhibition in assay [2] stood at 12%.

For `C=CC(=O)Nc1cccc(C(=O)Nc2ccc(Nc3cc(-c4[nH]c(SC)nc4C)ccn3)cc2)c1`, the % of control was determined as 92% in assay [3] (at 1 µM) and 95% in assay [3] (at 5 µM).

For `Cc1ccc(-c2ccc3c(ccc4sc5c(c43)NC[C@@H](C)NC5=O)n2)cn1`, in assay [4], the % of inhibition worked out at 1%.

Take `C=CC(=O)Nc1ccc(C(=O)Nc2[nH]nc3c2CN(C(=O)N[C@H](CN(C)C)c2ccccc2)C3(C)C)cc1`: the % of engagement in assay [5] is -4.5%.

For the origin of these results see ChEMBL document CHEMBL5465560, “Selectivity Literature for EUbOPEN Chemogenomic Library” (2024).
